Measured values reported in patent publication US10683315B2, “Prodrug of an HCV NS5B polymerase inhibitor and method of production and application thereof” (priority 2017, dated 2020).
Where “and” joins values, the source holds several entries; their conditions need not be identical. Identical values can stand only once.

How the values were obtained:
[1] = Stability in human liver S9 fraction; assay type: in vitro ADME
Protocol: Proteins were deposited on ice for 15 min. The samples were then centrifuged for 10 min at 3000 rpm, and the supernatant (150 μl) was sampled for analysis.
Tolbutamide (Fluka) was used as the internal standard.

Huh7 cells = assay: Cytotoxicity in Huh7 cells, ATPLite kit; assay type: cell-based, human
Protocol: The cytotoxicity of tested compositions comprising the prodrugs was evaluated concurrently in the same cell line Huh7 using an ATPLite kit (Perkin-Elmer, Boston, USA) in accordance with the manufacturer's instruction. The cell suspension in complete culture medium (DMEM 1×, Cellgro; cat. #10-013-CV) was transferred into 96-well plates with black walls and transparent bottoms (50 μl/well) with a final density of 7500 cells per well. Eighteen hours after planting the cells, serial drug dilutions (50 μl/well) were added. The plate with cells was incubated for 4 days at 37° C. in a humidified 5% CO2 atmosphere. The cells were then twice washed with PBS (200 μl/well) and lysed by adding a lytic buffer (50 μl/well); all reagents were taken from the ATPLite kit. Following a 5-minute stirring on a shaker, a substrate was added (50 μl/well). After an additional 5-minute incubation, the plate was kept for 10 minutes in the dark, and luminescence in the wells was measured using the multifunctional reader Victor^3 V 1420 (Perkin Elmer). The values of CC50 for tested prodrugs were measured from a cytotoxicity curve plotted using the GraphPad Prizm software.

[2] = from Sofia et al. J. Med. Chem. 2010; cited from earlier work

C[C@H](N[P@](=O)(OC[C@H]1O[C@@H](n2ccc(=O)[nH]c2=O)[C@](C)(F)[C@@H]1O)Oc1ccccc1)C(=O)OC1CCC1 [Prodrug 1.1, cyclobutyl (S)-2-{(S)-[(2R,3R,4R,5R)-5-(3,4-dihydro-2,4-dioxo-2H-pyrimidin-1-yl)-3-hydroxy-4-methyl-4-fluoro-tetrahydrofuran-2-ylmethoxy]-phenoxy-phosphorylamino}-propanoate]
metabolic rate in human liver microsomal S9 fraction, times faster than cyclohexyl ester of formula A1 ([1]; ratio of T1/2 vs A1): 28 times
metabolic rate in human liver microsomal S9 fraction, times faster than Sovaldi ([1]; ratio of T1/2 vs Sovaldi): 11 times
CC90 (Huh7 cells; Huh7, 10% FBS): > 100 µM
CC50 (Huh7 cells; Huh7, ATPLite, 4 days): > 100 µM

CC(C)OC(=O)[C@H](C)N[P@](=O)(OC[C@H]1O[C@@H](n2ccc(=O)[nH]c2=O)[C@](C)(F)[C@@H]1O)Oc1ccccc1 [Sovaldi®, Sofosbuvir]
T1/2 human S9 [2]: 34.2 min and 32.4 min
